Data set [1] has as its system Leptospira interrogans serovar Portlandvere. The data set is described as follows: Antimicrobial activity against Leptospira interrogans serovar Portlandvere infected golden Syrian hamster model of acute lethal leptospirosis assessed as survival at 5 mg/kg/day, ip once daily for 5 days administered 2 day after infection. The class given is functional. Conditions: for survival at 5 mg/kg/day: route intraperitoneal.

For data set [2] the test system is unchanged. Briefly: Antimicrobial activity against Leptospira interrogans serovar Portlandvere infected golden Syrian hamster model of acute lethal leptospirosis assessed as survival at 25 mg/kg/day, ip once daily for 5 days administered 2 day after infection. The format is functional. The note with it: route intraperitoneal.
For data set [3] the test system is unchanged. The data set is described as follows: Antimicrobial activity against Leptospira interrogans serovar Portlandvere infected golden Syrian hamster model of acute lethal leptospirosis assessed as survival at 50 mg/kg/day, ip once daily for 5 days administered 2 day after infection. The class given is functional. The note with it: route intraperitoneal.
For data set [4], the system named is Syrian golden hamster. Briefly: Toxicity against Leptospira interrogans serovar Portlandvere infected golden Syrian hamster model of acute lethal leptospirosis assessed as induction of diarrhea at 50 mg/kg/day, ip once daily for 5 days administered 2 day after infection. The class given is organism-based, Mesocricetus auratus. Also noted: route intraperitoneal. The note with it: in vivo.

Calls of active or inactive are those of the source. The rule behind the calls is not given here.

In the case of `C[C@H]1c2cccc(O)c2C(=O)C2=C(O)[C@]3(O)C(=O)C(C(N)=O)=C(O)[C@@H](N(C)C)[C@@H]3[C@@H](O)[C@@H]21`, in data set [1], the outcome was Active.
Turning to `O=C(O)c1cn(C2CC2)c2cc(N3CCNCC3)c(F)cc2c1=O` [CIPROFLOXACIN], in data set [1], the result was Active. Moreover, the survival at 25 mg/kg/day in data set [2] came out at 60%. Besides, in data set [3], the survival at 50 mg/kg/day came out at 90%.
On to `COc1c(N2CCNC(C)C2)c(F)cc2c(=O)c(C(=O)O)cn(C3CC3)c12` (stereo unspecified) [GATIFLOXACIN], for which the survival at 5 mg/kg/day in data set [1] was found to be 90%. Also, the survival at 25 mg/kg/day in data set [2] worked out at 100%. Further, in data set [3], the survival at 50 mg/kg/day was 60%. In addition, the Activity result in data set [4] is “Toxic”.
`C[C@H]1COc2c(N3CCN(C)CC3)c(F)cc3c(=O)c(C(=O)O)cn1c23` [LEVOFLOXACIN]: in data set [1], the survival at 5 mg/kg/day amounted to 40%. For the same compound, the survival at 25 mg/kg/day in data set [2] was found to be 95%. The survival at 50 mg/kg/day in data set [3] was 95%.
